# Data reported in ChEMBL document CHEMBL3885861, “Open TG-GATES”.
# Species: Rattus norvegicus
# Experiment: Open TG-GATES - Regimen: Single
# Assay type: toxicity, organism-based, Sprague-Dawley
# Set-up: regimen Single, gender Male, age 6 weeks
# Conditions: in vivo, po, 1200 mg/kg, route gavage, dose level Middle; for APTT / Bas / Eos / Fbg / Hb / Ht / Lym / MCH / MCHC / MCV / Mono / Neu / PT / Plat / RBC / Ret / WBC: tissue Blood; for KIDNEY_L / KIDNEY_R / KIDNEY_TOTAL: tissue Kidney; for LIVER: tissue Liver; for A/G / ALP / ALT / AST / BUN / CRE / Ca / Cl / DBIL / GLC / IP / K / LDH / Na / PL / RALB / TBIL / TC / TG / TP / gamma-GTP: tissue Plasma
structure (smiles),measurement,setting,value
CCO [ALCOHOL],TERMINAL_BW,3 h,203.8 g
same,APTT,3 h,18.7 s
same,Bas,3 h,0%
same,Eos,3 h,1%
same,Fbg,3 h,200 mg/dL
same,Hb,3 h,13.2 g/dL
same,Ht,3 h,39.1%
same,Lym,3 h,72%
same,MCH,3 h,22.1 pg
same,MCHC,3 h,33.7%
same,MCV,3 h,65.5 fL
same,Mono,3 h,5.6%
same,Neu,3 h,21.6%
same,PT,3 h,12.4 s
same,Plat,3 h,108.6 x10_4/uL
same,RBC,3 h,596.8 x10_4/ul
same,Ret,3 h,8.1%
same,WBC,3 h,95.6 x10_2/uL
same,KIDNEY_L,3 h,0.9 g
same,KIDNEY_R,3 h,1 g
same,KIDNEY_TOTAL,3 h,1.9 g
same,LIVER,3 h,9.2 g
same,A/G,3 h,2.8
same,ALP,3 h,973.6 IU/L
same,ALT,3 h,38 IU/L
same,AST,3 h,69.8 IU/L
same,BUN,3 h,9 mg/dL
same,CRE,3 h,0.5 mg/dL
same,Ca,3 h,10.7 mg/dL
same,Cl,3 h,104.6 meq/L
same,DBIL,3 h,0.016 mg/dL
same,GLC,3 h,204.4 mg/dL
same,IP,3 h,8.9 mg/dL
same,K,3 h,4.5 meq/L
same,LDH,3 h,121.2 IU/L
same,Na,3 h,140 meq/L
same,PL,3 h,138 mg/dL
same,RALB,3 h,3.8 g/dL
same,TBIL,3 h,0.4 mg/dL
same,TC,3 h,74.8 mg/dL
same,TG,3 h,60.8 mg/dL
same,TP,3 h,5.2 g/dL
same,gamma-GTP,3 h,1.2 IU/L
same,TERMINAL_BW,6 h,203.8 g
same,APTT,6 h,17.5 s
same,Bas,6 h,0%
same,Eos,6 h,1.2%
same,Fbg,6 h,196.6 mg/dL
same,Hb,6 h,13.3 g/dL
same,Ht,6 h,39.9%
same,Lym,6 h,67%
same,MCH,6 h,21.7 pg
same,MCHC,6 h,33.3%
same,MCV,6 h,65 fL
same,Mono,6 h,12%
same,Neu,6 h,19.4%
same,PT,6 h,12.2 s
same,Plat,6 h,98.4 x10_4/uL
same,RBC,6 h,615.4 x10_4/ul
same,Ret,6 h,13.5%
same,WBC,6 h,87.4 x10_2/uL
same,KIDNEY_L,6 h,0.9 g
same,KIDNEY_R,6 h,1 g
same,KIDNEY_TOTAL,6 h,1.9 g
same,LIVER,6 h,9.2 g
same,A/G,6 h,2.4
same,ALP,6 h,827.2 IU/L
same,ALT,6 h,36 IU/L
same,AST,6 h,71 IU/L
same,BUN,6 h,11.4 mg/dL
same,CRE,6 h,0.5 mg/dL
same,Ca,6 h,10.5 mg/dL
same,Cl,6 h,105.2 meq/L
same,DBIL,6 h,0.066 mg/dL
same,GLC,6 h,203 mg/dL
same,IP,6 h,10.3 mg/dL
same,K,6 h,4.6 meq/L
same,LDH,6 h,87 IU/L
same,Na,6 h,140.8 meq/L
same,PL,6 h,132.4 mg/dL
same,RALB,6 h,3.8 g/dL
same,TBIL,6 h,0.4 mg/dL
same,TC,6 h,69.2 mg/dL
same,TG,6 h,59.4 mg/dL
same,TP,6 h,5.3 g/dL
same,gamma-GTP,6 h,1.8 IU/L
same,TERMINAL_BW,9 h,201.5 g
same,APTT,9 h,17.2 s
same,Bas,9 h,0%
same,Eos,9 h,1.6%
same,Fbg,9 h,204.2 mg/dL
same,Hb,9 h,13.5 g/dL
same,Ht,9 h,40.2%
same,Lym,9 h,73%
same,MCH,9 h,21.2 pg
same,MCHC,9 h,33.5%
same,MCV,9 h,63.3 fL
same,Mono,9 h,7.4%
same,Neu,9 h,18.2%
same,PT,9 h,12.1 s
same,Plat,9 h,114.7 x10_4/uL
same,RBC,9 h,635.8 x10_4/ul
same,Ret,9 h,9.9%
same,WBC,9 h,73.2 x10_2/uL
same,KIDNEY_L,9 h,0.9 g
same,KIDNEY_R,9 h,0.9 g
same,KIDNEY_TOTAL,9 h,1.9 g
same,LIVER,9 h,8.4 g
same,A/G,9 h,2.8
same,ALP,9 h,845 IU/L
same,ALT,9 h,28.8 IU/L
same,AST,9 h,61.6 IU/L
same,BUN,9 h,11 mg/dL
same,CRE,9 h,0.5 mg/dL
same,Ca,9 h,10.9 mg/dL
same,Cl,9 h,105.8 meq/L
same,DBIL,9 h,0.042 mg/dL
same,GLC,9 h,192 mg/dL
same,IP,9 h,10.7 mg/dL
same,K,9 h,4.7 meq/L
same,LDH,9 h,102 IU/L
same,Na,9 h,136.4 meq/L
same,PL,9 h,132.2 mg/dL
same,RALB,9 h,4.1 g/dL
same,TBIL,9 h,0.4 mg/dL
same,TC,9 h,71.6 mg/dL
same,TG,9 h,35 mg/dL
same,TP,9 h,5.6 g/dL
same,gamma-GTP,9 h,1.4 IU/L
same,TERMINAL_BW,24 h,217.4 g
same,APTT,24 h,17.6 s
same,Bas,24 h,0%
same,Eos,24 h,1.2%
same,Fbg,24 h,207.2 mg/dL
same,Hb,24 h,13.2 g/dL
same,Ht,24 h,39.2%
same,Lym,24 h,73.4%
same,MCH,24 h,21.8 pg
same,MCHC,24 h,33.6%
same,MCV,24 h,64.9 fL
same,Mono,24 h,9.2%
same,Neu,24 h,16.4%
same,PT,24 h,11.4 s
same,Plat,24 h,113.3 x10_4/uL
same,RBC,24 h,604.6 x10_4/ul
same,Ret,24 h,10.6%
same,WBC,24 h,106.7 x10_2/uL
same,KIDNEY_L,24 h,1 g
same,KIDNEY_R,24 h,1 g
same,KIDNEY_TOTAL,24 h,1.9 g
same,LIVER,24 h,10.5 g
same,A/G,24 h,2.6
same,ALP,24 h,909 IU/L
same,ALT,24 h,37.8 IU/L
same,AST,24 h,64.8 IU/L
same,BUN,24 h,21.2 mg/dL
same,CRE,24 h,0.5 mg/dL
same,Ca,24 h,11 mg/dL
same,Cl,24 h,103.6 meq/L
same,DBIL,24 h,0 mg/dL
same,GLC,24 h,188 mg/dL
same,IP,24 h,8.8 mg/dL
same,K,24 h,4.9 meq/L
same,LDH,24 h,109.8 IU/L
same,Na,24 h,138.8 meq/L
same,PL,24 h,159.4 mg/dL
same,RALB,24 h,4 g/dL
same,TBIL,24 h,0.3 mg/dL
same,TC,24 h,83.6 mg/dL
same,TG,24 h,101.8 mg/dL
same,TP,24 h,5.6 g/dL
same,gamma-GTP,24 h,1 IU/L
